Columns and labels:
[1] = system: TNFα production in LPS-stimulated human monocytes; experiment: Cot Monocyte TNFα Cell Based Assay; settings: Homo sapiens, Monocyte, TNFα in LPS-stimulated human monocytes; read-out: EC50 TNF
How it was run: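 Human monocytes (5,000 cells/well) pretreated with compound for 1 hour at 37° C (0.5% DMSO), then stimulated with 50 pg/ml LPS for 4 hours. Total TNFα measured by TR-FRET after overnight antibody incubation at room temp, expressed as percent of control between unstimulated and stimulated cells.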

[2] = target: T1, human Cot catalytic domain (30-397 amino acids) (Homo sapiens, UniProt P41279); experiment: High Throughput Cot Biochemical Assay (KinEASE TR-FRET); settings: Cot biochemical HTRF (KinEASE TR-FRET) assay; read-out: IC50 HTRF
T1 construct: Purified recombinant human Cot catalytic domain (30-397 amino acids) was purchased from Cama Biosciences; purchased Cama Biosciences (so in the source)
T1 sequence (P41279 30-397): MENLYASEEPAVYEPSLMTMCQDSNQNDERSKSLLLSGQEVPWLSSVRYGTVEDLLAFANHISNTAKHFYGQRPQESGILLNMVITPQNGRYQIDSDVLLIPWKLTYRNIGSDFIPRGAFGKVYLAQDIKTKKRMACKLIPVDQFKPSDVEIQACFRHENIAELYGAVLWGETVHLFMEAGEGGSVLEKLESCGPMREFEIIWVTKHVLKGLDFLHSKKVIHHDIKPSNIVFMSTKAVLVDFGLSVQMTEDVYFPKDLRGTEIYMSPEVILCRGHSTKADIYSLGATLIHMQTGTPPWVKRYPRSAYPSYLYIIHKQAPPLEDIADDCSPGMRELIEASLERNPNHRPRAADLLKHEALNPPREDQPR
How it was run: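 Recombinant human Cot catalytic domain (aa 30-397), 5 nM, with 1 μM STK3 peptide and 400 μM ATP in MOPS pH 7.0 buffer with MgOAc, DTT, BSA, NP-40, glycerol, 0.1% DMSO. Phosphorylated XL665-peptide detected by Eu-[…] antibody TR-FRET.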

EC50 [1] [µM] | IC50 [2] [µM] | Compound
7.86 | 0.366 | Cn1ccnc1C(Nc1cc(Cl)c2ncc(C#N)c(Nc3ccc(F)c(Cl)c3)c2c1)c1ccc(F)cc1 (centres unmarked) [Example 847, 8-chloro-4-((3-chloro-4-fluorophenyl)amino)-6-(((4-fluorophenyl)(1-methyl-1H-imidazol-2-yl)methyl)amino)quinoline-3-carbonitrile]
6.28 | 0.687 | CCN1CCC(n2cc([C@H](Nc3cc(Cl)c4ncc(C#N)c(Nc5ccc(F)c(Cl)c5)c4c3)c3ccc(F)cc3)nn2)CC1 [Example 849, (R)-8-chloro-4-((3-chloro-4-fluorophenyl)amino)-6-(((1-(1-ethylpiperidin-4-yl)-1H-1,2,3-triazol-4-yl)(4-fluorophenyl)methyl)amino) quinoline-3-carbonitrile]
> 1 | 6.3 | Cn1cc(C(Nc2cc(Cl)c3ncc(C#N)c(Nc4ccc(F)c(Cl)c4)c3c2)c2ccc(F)cc2)cn1 (centres unmarked) [Example 853, 8-chloro-4-((3-chloro-4-fluorophenyl)amino)-6-(((4-fluorophenyl)(1-methyl-1H-pyrazol-4-yl)methyl)amino)quinoline-3-carbonitrile]
> 10 | 0.469 | Cn1cnnc1C(Nc1cc(Cl)c2ncc(C#N)c(Nc3ccc(F)c(Cl)c3)c2c1)c1ccc(F)cc1 (centres unmarked) [Example 854, 8-chloro-4-((3-chloro-4-fluorophenyl)amino)-6-(((4-fluorophenyl)(4-methyl-4H-1,2,4-triazol-3-yl)methyl)amino)quinoline-3-carbonitrile]
0.099 | 0.008 | CCN1CCC(n2cc([C@@H](Nc3cc(Cl)c4ncc(C#N)c(Nc5ccc(F)c(Cl)c5)c4c3)c3ccc(Cl)cc3)nn2)CC1 [Example 858, (S)-8-chloro-4-((3-chloro-4-fluorophenyl)amino)-6-(((4-chlorophenyl)(1-(1-ethylpiperidin-4-yl)-1H-1,2,3-triazol-4-yl)methyl)amino)quinoline-3-carbonitrile]
0.533 | 0.012 | N#Cc1cnc2c(Cl)cc(N[C@@H](c3ccc(Cl)cc3)c3cn(C4CCNCC4)nn3)cc2c1Nc1ccc(F)c(Cl)c1 [Example 859, (S)-8-chloro-4-((3-chloro-4-fluorophenyl)amino)-6-(((4-chlorophenyl)(1-(piperidin-4-yl)-1H-1,2,3-triazol-4-yl)methyl)amino)quinoline-3-carbonitrile]
2.76 | 0.125 | Cn1cnc(C(Nc2cc(Cl)c3ncc(C#N)c(Nc4ccc(F)c(Cl)c4)c3c2)c2ccc(F)c(F)c2)c1 (centres unmarked) [Example 869, 8-chloro-4-((3-chloro-4-fluorophenyl)amino)-6-(((3,4-difluorophenyl)(1-methyl-1H-imidazol-4-yl)methyl)amino)quinoline-3-carbonitrile]
1.31 | 0.041 | N#Cc1cnc2c(Cl)cc(NC(c3ccc(Cl)cc3)c3cn(C4CNC4)nn3)cc2c1Nc1ccc(F)c(Cl)c1 (centres unmarked) [Example 872, 6-(((1-(azetidin-3-yl)-1H-1,2,3-triazol-4-yl)(4-chlorophenyl)methyl)amino)-8-chloro-4-((3-chloro-4-fluorophenyl)amino)quinoline-3-carbonitrile]
0.673 | 0.039 | Cn1cc(C(Nc2cc(Cl)c3ncc(C#N)c(Nc4ccc(F)c(Cl)c4)c3c2)c2ccc(Cl)cc2)nn1 (centres unmarked) [Example 881, 8-chloro-4-((3-chloro-4-fluorophenyl)amino)-6-(((4-chlorophenyl)(1-methyl-1H-1,2,3-triazol-4-yl)methyl)amino)quinoline-3-carbonitrile]
0.321 | 0.02 | Cn1cc(C(Nc2cc(Cl)c3ncc(C#N)c(Nc4ccc(F)c(Cl)c4)c3c2)c2ccc(F)cc2)nn1 (centres unmarked) [Example 882, 8-chloro-4-((3-chloro-4-fluorophenyl)amino)-6-(((4-fluorophenyl)(1-methyl-1H-1,2,3-triazol-4-yl)methyl)amino)quinoline-3-carbonitrile]

From patent publication US10316017B2, “COT modulators and methods of use thereof” (Gilead Sciences, Inc., priority 2015, dated 2019)
